Data published in patent US20240400555A1 (Initial Therapeutics, Inc., priority 2023, published 2024).

Test system: HCT-116 Firefly-luciferase reporter cells
Test: Cellular c-MYC Reporter Assay
Assay type: cell-based
Details: Homo sapiens; untitled table following Table 8a; HCT-116 Firefly-luciferase reporter cells, 24 h; read-out: pIC50 (converted)
In short: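 Compound exposure lasted 24 h at 37 °C, 5% CO2, in complete McCoy's 5A medium containing 0.2% DMSO, beginning 4–6 h post-seeding (5e4 cells/mL). Firefly luciferase signal measured by luminescence after 10 min ONE-Glo development at room temperature.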

SMILES | IC50 [µM]
Cc1ccnc(N(C)c2ccc(C(=O)N(c3nccc4cccc(C)c34)[C@@H]3CCCNC3)c(F)c2)n1 [Example 180, (R)-2-fluoro-4-(methyl (4-methylpyrimidin-2-yl)amino)-N-(8-methylisoquinolin-1-yl)-N-(piperidin-3-yl)benzamide] | 3.39
Cn1cnc(-c2cccnc2N(C(=O)c2ccc(-n3nnc4cccnc43)cc2F)[C@@H]2CCCNC2)c1 [Example 112, (R)-4-(3H-[1,2,3]triazolo[4,5-b]pyridin-3-yl)-2-fluoro-N-(3-(1-methyl-1H-imidazol-4-yl)pyridin-2-yl)-N-(piperidin-3-yl)benzamide] | 0.38
Cc1cccc2ccnc(N(C(=O)c3ccc(Nc4nnc(C(F)(F)F)s4)cc3F)[C@@H]3CCCNC3)c12 [Example 281, 2-fluoro-N-(8-methyl-1-isoquinolyl)-N-[(3R)-3-piperidyl]-4-[[5-(trifluoromethyl)-1,3,4-thiadiazol-2-yl]amino] benzamide] | 2.63
Cc1cccc2ccnc(N(C(=O)c3ccc(-c4n[nH]c5c4CCCC5)cc3F)[C@@H]3CCCNC3)c12 [Example 123, (R)-2-fluoro-N-(8-methylisoquinolin-1-yl)-N-(piperidin-3-yl)-4-(4,5,6,7-tetrahydro-1H-indazol-3-yl) benzamide] | 5.01
Cc1csc2ccnc(N(C(=O)c3ccc(-n4nnc5cccnc54)cc3F)[C@@H]3CCCNC3)c12 [Example 121, 2-fluoro-N-(3-methylthieno[3,2-c]pyridin-4-yl)-N-[(3R)-3-piperidyl]-4-(triazolo[4,5-b]pyridin-3-yl)benzamide] | 0.038
Cc1cccc2ccnc(N(C(=O)c3cccc(Cn4nc5cccnc5n4)c3F)[C@@H]3CCCNC3)c12 [Example 273, (R)-3-((2H-[1,2,3]triazolo[4,5-b]pyridin-2-yl)methyl)-2-fluoro-N-(8-methylisoquinolin-1-yl)-N-(piperidin-3-yl)benzamide] | 1.7
Cc1cccc2ccnc(N(C(=O)N3CCC(c4nc(-c5ccccc5)no4)CC3)[C@@H]3CCCNC3)c12 [Example 263] | 1.26
Cc1cccc2ccnc(N(C(=O)c3ccc(-n4nnc5cccnc54)cc3)[C@H]3CNC[C@@H](C)C3)c12 [Example 225, 4-(3H-[1,2,3]triazolo[4,5-b]pyridin-3-yl)-N-(8-methylisoquinolin-1-yl)-N-((3R,5S)-5-methylpiperidin-3-yl)benzamide] | 4.79
N#Cc1ccc2c(N(C(=O)c3ccc(-n4nnc5cccnc54)cc3F)[C@@H]3CCCNC3)nccc2c1 [Example 147, (R)-4-(3H-[1,2,3]triazolo[4,5-b]pyridin-3-yl)-2-fluoro-N-(6-cyanoisoquinolin-1-yl)-N-(piperidin-3-yl)benzamide] | 1.38
Cc1cccc2ccnc(N(C(=O)c3c(F)cc(-n4nnc5cccnc54)cc3F)[C@@H]3CCCNC3)c12 [Example 218, (R)-4-(3H-[1,2,3]triazolo[4,5-b]pyridin-3-yl)-2,6-difluoro-N-(8-methylisoquinolin-1-yl)-N-(piperidin-3-yl)benzamide] | 0.0437
Cc1cccc2ccnc(N(C(=O)c3ccc(Nc4nc5ccccn5n4)cc3F)[C@@H]3CCCNC3)c12 [Example 169, (R)-4-([1,2,4]triazolo[1,5-a]pyridin-2-ylamino)-2-fluoro-N-(8-methylisoquinolin-1-yl)-N-(piperidin-3-yl)benzamide] | 0.316
Cc1cccc2ccnc(N(C(=O)c3ccc(CO)cc3F)[C@@H]3CCCNC3)c12 [Example 168, (R)-2-fluoro-4-(hydroxymethyl)-N-(8-methylisoquinolin-1-yl)-N-(piperidin-3-yl)benzamide] | 5.25
Cc1nnn(-c2ccc(C(=O)N(c3nccc4cccc(C)c34)[C@@H]3CCCNC3)c(F)c2)n1 [Example 195, (R)-2-fluoro-4-(5-methyl-2H-tetrazol-2-yl)-N-(8-methylisoquinolin-1-yl)-N-(piperidin-3-yl) benzamide] | 0.0871
COC(=O)c1cccnc1N(C(=O)c1ccc(-n2nnc3cccnc32)cc1F)[C@@H]1CCCNC1 [Example 167, methyl (R)-2-(4-(3H-[1,2,3]triazolo[4,5-b]pyridin-3-yl)-2-fluoro-N-(piperidin-3-yl)benzamido)nicotinate] | 0.661
Cc1cccc2ccnc(N(C(=O)c3ccc(Nc4ccc[nH]c4=O)cc3F)[C@@H]3CCCNC3)c12 [Example 132, (R)-2-fluoro-N-(8-methylisoquinolin-1-yl)-4-((2-oxo-1,2-dihydropyridin-3-yl)amino)-N-(piperidin-3-yl)benzamide] | 1.58
Cc1cccc2ccnc(N(C(=O)c3ccc(-c4nnn(C)n4)cc3F)[C@@H]3CCCNC3)c12 [Example 125, (R)-2-fluoro-4-(2-methyl-2H-tetrazol-5-yl)-N-(8-methylisoquinolin-1-yl)-N-(piperidin-3-yl) benzamide] | 0.0245
Cc1cccc2ccnc(N(C(=O)c3ccc(-n4nnc5ccc(Cl)nc54)cc3F)[C@@H]3CCCNC3)c12 [Example 192, (R)-4-(5-chloro-3H-[1,2,3]triazolo[4,5-b]pyridin-3-yl)-2-fluoro-N-(8-methylisoquinolin-1-yl)-N-(piperidin-3-yl)benzamide] | 0.17
Cc1cccc2ccnc(N(C(=O)c3ccc(Nc4ncco4)cc3F)[C@@H]3CCCNC3)c12 [Example 290, (R)-2-fluoro-N-(8-methylisoquinolin-1-yl)-4-(oxazol-2-ylamino)-N-(piperidin-3-yl) benzamide] | 3.39
Cc1cccc2ccnc(N(C(=O)c3ccc(Nc4ncccn4)cn3)[C@@H]3CCCNC3)c12 [Example 184, (R)—N-(8-methylisoquinolin-1-yl)-N-(piperidin-3-yl)-5-(pyrimidin-2-ylamino) picolinamide] | 1.55
Cc1cncc(-c2ccc(C(=O)N(c3nccc4cccc(C)c34)[C@@H]3CCCNC3)c(F)c2)n1 [Example 202, (R)-2-fluoro-N-(8-methylisoquinolin-1-yl)-4-(6-methylpyrazin-2-yl)-N-(piperidin-3-yl)benzamide] | 0.372
Cc1cc(C2CCN(C(=O)N(c3nccc4cccc(C)c34)[C@@H]3CCCNC3)CC2)ccn1 [Example 199, (R)—N-(8-methylisoquinolin-1-yl)-4-(2-methylpyridin-4-yl)-N-(piperidin-3-yl)piperidine-1-carboxamide] | 0.263
O=C(c1ccc(-n2nnc3cccnc32)cc1F)N(c1nccc2sc(C3=CCNCC3)cc12)[C@@H]1CCCNC1 [Example 159, (R)-4-(3H-[1,2,3]triazolo[4,5-b]pyridin-3-yl)-2-fluoro-N-(piperidin-3-yl)-N-(2-(1,2,3,6-tetrahydropyridin-4-yl)thieno[3,2-c]pyridin-4-yl)benzamide] | 2.63
Cc1ccc(C)c2c(N(C(=O)c3ccc(-n4nnc5cccnc54)cc3F)[C@@H]3CCCNC3)nccc12 [Example 253, (R)-4-(3H-[1,2,3]triazolo[4,5-b]pyridin-3-yl)-N-(5,8-dimethylisoquinolin-1-yl)-2-fluoro-N-(piperidin-3-yl)benzamide] | 0.115
O=C(c1ccc(-n2nnc3cccnc32)cc1F)N(c1ncccc1-c1cc[nH]n1)[C@@H]1CCCNC1 [Example 136, (R)—N-(3-(1H-pyrazol-3-yl)pyridin-2-yl)-4-(3H-[1,2,3]triazolo[4,5-b]pyridin-3-yl)-2-fluoro-N-(piperidin-3-yl)benzamide] | 1.1
